We go through 3 molecules from ChEMBL document CHEMBL5678810.

Test [1] deals with Serine/threonine-protein kinase SIK1 (Homo sapiens) (UniProt P57059). Kind of test: Inhibition of T7 bacteriophage fused human SIK at 10 uM by KINOMEscan analysis relative to control.
Test [2] deals with NUAK family SNF1-like kinase 2 (Homo sapiens) (UniProt Q9H093). The test is described as follows: Inhibition of T7 bacteriophage fused human SNARK at 10 uM by KINOMEscan analysis relative to control.
Test [3] concerns the target Proto-oncogene tyrosine-protein kinase Src (Homo sapiens) (UniProt P12931). The test is described as follows: Inhibition of T7 bacteriophage fused human SRC at 10 uM by KINOMEscan analysis relative to control.
Test [4] concerns the target Tyrosine-protein kinase Srms (Homo sapiens) (UniProt Q9H3Y6). The test is described as follows: Inhibition of T7 bacteriophage fused human SRMS at 10 uM by KINOMEscan analysis relative to control.
Test [5] deals with SRSF protein kinase 2 (Homo sapiens) (UniProt P78362). Kind of test: Inhibition of T7 bacteriophage fused human SRPK2 at 10 uM by KINOMEscan analysis relative to control.
Test [6] addresses SRSF protein kinase 3 (Homo sapiens) (UniProt Q9UPE1). Kind of test: Inhibition of T7 bacteriophage fused human SRPK3 at 10 uM by KINOMEscan analysis relative to control.
Test [7] addresses Serine/threonine-protein kinase 33 (Homo sapiens) (UniProt Q9BYT3). The test is described as follows: Inhibition of T7 bacteriophage fused human STK33 at 10 uM by KINOMEscan analysis relative to control.
Test [8] has as its target Serine/threonine-protein kinase 35 (Homo sapiens) (UniProt Q8TDR2). The test is described as follows: Inhibition of T7 bacteriophage fused human STK35 at 10 uM by KINOMEscan analysis relative to control.
Test [9] addresses Serine/threonine-protein kinase TAO3 (Homo sapiens) (UniProt Q9H2K8). The test is described as follows: Inhibition of T7 bacteriophage fused human TAOK3 at 10 uM by KINOMEscan analysis relative to control.
The target of test [10] is TGF-beta receptor type-1 (Homo sapiens) (UniProt P36897). The test is described as follows: Inhibition of T7 bacteriophage fused human TGFBR1 at 10 uM by KINOMEscan analysis relative to control.
In test [11] the target is Serine/threonine-protein kinase tousled-like 2 (Homo sapiens) (UniProt Q86UE8). The test is described as follows: Inhibition of T7 bacteriophage fused human TLK2 at 10 uM by KINOMEscan analysis relative to control.
In test [12] the target is High affinity nerve growth factor receptor (Homo sapiens) (UniProt P04629). Kind of test: Inhibition of T7 bacteriophage fused human TRKA at 10 uM by KINOMEscan analysis relative to control.
The target of test [13] is BDNF/NT-3 growth factors receptor (Homo sapiens) (UniProt Q16620). Kind of test: Inhibition of T7 bacteriophage fused human TRKB at 10 uM by KINOMEscan analysis relative to control.
Test [14] has as its target NT-3 growth factor receptor (Homo sapiens) (UniProt Q16288). Kind of test: Inhibition of T7 bacteriophage fused human TRKC at 10 uM by KINOMEscan analysis relative to control.
Test [15] has as its target Transient receptor potential cation channel subfamily M member 6 (Homo sapiens) (UniProt Q9BX84). The test is described as follows: Inhibition of T7 bacteriophage fused human TRPM6 at 10 uM by KINOMEscan analysis relative to control.
Test [16] has as its target Testis-specific serine/threonine-protein kinase 1 (Homo sapiens) (UniProt Q9BXA7). The test is described as follows: Inhibition of T7 bacteriophage fused human TSSK1B at 10 uM by KINOMEscan analysis relative to control.
Test [17] has as its target T1, Dual specificity protein kinase TTK (Homo sapiens) (UniProt P33981).
T1 sequence (whole entry): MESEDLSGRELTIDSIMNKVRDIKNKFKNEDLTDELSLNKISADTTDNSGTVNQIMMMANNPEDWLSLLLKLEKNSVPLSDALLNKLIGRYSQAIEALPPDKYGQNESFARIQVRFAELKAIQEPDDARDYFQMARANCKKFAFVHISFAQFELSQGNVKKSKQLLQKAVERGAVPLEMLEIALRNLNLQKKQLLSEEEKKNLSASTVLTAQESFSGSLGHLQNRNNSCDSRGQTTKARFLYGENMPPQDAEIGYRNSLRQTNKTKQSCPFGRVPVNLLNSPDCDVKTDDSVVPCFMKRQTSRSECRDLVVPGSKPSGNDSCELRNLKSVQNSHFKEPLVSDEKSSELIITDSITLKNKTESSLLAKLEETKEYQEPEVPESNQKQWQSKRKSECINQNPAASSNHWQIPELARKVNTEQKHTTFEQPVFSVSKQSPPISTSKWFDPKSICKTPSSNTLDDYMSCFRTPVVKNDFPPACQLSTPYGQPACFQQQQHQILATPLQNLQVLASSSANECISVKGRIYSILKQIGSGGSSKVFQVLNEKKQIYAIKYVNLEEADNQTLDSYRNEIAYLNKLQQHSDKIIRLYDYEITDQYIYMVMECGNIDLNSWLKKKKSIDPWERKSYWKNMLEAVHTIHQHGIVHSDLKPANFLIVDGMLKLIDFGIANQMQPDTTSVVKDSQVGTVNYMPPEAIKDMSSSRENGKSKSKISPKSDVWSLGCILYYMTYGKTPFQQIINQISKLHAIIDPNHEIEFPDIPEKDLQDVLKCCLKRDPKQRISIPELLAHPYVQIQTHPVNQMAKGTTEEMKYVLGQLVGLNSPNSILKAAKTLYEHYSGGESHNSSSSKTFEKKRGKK
The test is described as follows: Inhibition of T7 bacteriophage fused human TTK at 10 uM by KINOMEscan analysis relative to control.

The target in test [18] is Tyrosine-protein kinase TXK (Homo sapiens) (UniProt P42681). Kind of test: Inhibition of T7 bacteriophage fused human TXK at 10 uM by KINOMEscan analysis relative to control.
The target in test [19] is Non-receptor tyrosine-protein kinase TYK2 (Homo sapiens) (UniProt P29597). The test is described as follows: Inhibition of T7 bacteriophage fused human TYK2 JH1 catalytic domain at 10 uM by KINOMEscan analysis relative to control.
Test [20] deals with Serine/threonine-protein kinase VRK2 (Homo sapiens) (UniProt Q86Y07). Kind of test: Inhibition of T7 bacteriophage fused human VRK2 at 10 uM by KINOMEscan analysis relative to control.
The target in test [21] is Wee1-like protein kinase (Homo sapiens) (UniProt P30291). The test is described as follows: Inhibition of T7 bacteriophage fused human WEE1 at 10 uM by KINOMEscan analysis relative to control.
The target in test [22] is Tyrosine-protein kinase Yes (Homo sapiens) (UniProt P07947). Kind of test: Inhibition of T7 bacteriophage fused human YES at 10 uM by KINOMEscan analysis relative to control.
In test [23] the target is Mitogen-activated protein kinase kinase kinase 12 (Homo sapiens) (UniProt Q12852). Kind of test: Inhibition of T7 bacteriophage fused human DLK at 10 uM by KINOMEscan analysis relative to control; values are per cent of control.
In test [24] the target is Microtubule-associated serine/threonine-protein kinase 1 (Homo sapiens) (UniProt Q9Y2H9). The test is described as follows: Inhibition of T7 bacteriophage fused human MAST1 at 10 uM by KINOMEscan analysis relative to control; values are per cent of control.

Each structure is given as a SMILES string.

Tyrosine-protein kinase TXK (Homo sapiens), sequence (P42681 whole entry, the tested form may be a part): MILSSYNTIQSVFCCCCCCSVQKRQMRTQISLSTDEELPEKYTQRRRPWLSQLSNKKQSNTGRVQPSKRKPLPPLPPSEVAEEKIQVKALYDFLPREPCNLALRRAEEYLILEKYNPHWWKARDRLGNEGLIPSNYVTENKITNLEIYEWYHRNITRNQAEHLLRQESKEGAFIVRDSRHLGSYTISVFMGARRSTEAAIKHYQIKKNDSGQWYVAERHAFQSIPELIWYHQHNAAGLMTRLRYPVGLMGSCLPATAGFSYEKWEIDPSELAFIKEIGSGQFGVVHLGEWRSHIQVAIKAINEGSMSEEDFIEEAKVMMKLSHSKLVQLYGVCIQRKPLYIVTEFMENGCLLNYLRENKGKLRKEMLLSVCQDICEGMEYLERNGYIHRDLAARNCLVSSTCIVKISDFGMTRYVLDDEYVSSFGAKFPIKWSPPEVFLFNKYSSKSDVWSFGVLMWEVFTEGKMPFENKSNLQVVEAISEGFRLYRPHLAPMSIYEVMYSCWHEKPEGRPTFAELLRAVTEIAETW
Tyrosine-protein kinase Yes (Homo sapiens), sequence (P07947 2-543 limits assumed): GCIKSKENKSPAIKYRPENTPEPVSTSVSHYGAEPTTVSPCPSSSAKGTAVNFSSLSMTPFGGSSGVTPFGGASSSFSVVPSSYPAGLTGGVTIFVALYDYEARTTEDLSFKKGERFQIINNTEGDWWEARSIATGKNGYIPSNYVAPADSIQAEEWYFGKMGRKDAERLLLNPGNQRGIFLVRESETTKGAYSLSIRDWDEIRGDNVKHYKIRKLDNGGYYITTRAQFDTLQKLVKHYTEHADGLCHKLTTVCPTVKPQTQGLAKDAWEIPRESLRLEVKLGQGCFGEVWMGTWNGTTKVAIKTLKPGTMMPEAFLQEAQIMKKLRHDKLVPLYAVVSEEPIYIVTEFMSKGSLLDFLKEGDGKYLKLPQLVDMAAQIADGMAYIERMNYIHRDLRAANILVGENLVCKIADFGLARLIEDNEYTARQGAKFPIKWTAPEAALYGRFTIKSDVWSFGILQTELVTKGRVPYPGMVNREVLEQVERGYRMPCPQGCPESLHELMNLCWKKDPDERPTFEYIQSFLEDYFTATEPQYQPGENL
Serine/threonine-protein kinase 33 (Homo sapiens), sequence (Q9BYT3 whole entry, looked up, the tested form may be a part): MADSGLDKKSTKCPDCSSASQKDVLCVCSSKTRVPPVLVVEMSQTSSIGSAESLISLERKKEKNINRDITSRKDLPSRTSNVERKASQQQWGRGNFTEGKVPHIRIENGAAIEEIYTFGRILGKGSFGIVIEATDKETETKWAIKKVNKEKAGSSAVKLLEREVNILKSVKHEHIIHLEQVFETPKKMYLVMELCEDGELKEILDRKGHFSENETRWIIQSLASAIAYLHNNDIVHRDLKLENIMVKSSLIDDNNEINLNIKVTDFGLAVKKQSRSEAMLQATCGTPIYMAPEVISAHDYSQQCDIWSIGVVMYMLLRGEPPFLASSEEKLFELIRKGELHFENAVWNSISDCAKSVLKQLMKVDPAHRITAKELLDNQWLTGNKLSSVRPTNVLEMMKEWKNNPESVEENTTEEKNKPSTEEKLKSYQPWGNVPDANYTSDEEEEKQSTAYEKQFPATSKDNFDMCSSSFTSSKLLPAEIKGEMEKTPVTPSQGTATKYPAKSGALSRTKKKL
Serine/threonine-protein kinase VRK2 (Homo sapiens), sequence (Q86Y07 whole entry, the tested form may be a part): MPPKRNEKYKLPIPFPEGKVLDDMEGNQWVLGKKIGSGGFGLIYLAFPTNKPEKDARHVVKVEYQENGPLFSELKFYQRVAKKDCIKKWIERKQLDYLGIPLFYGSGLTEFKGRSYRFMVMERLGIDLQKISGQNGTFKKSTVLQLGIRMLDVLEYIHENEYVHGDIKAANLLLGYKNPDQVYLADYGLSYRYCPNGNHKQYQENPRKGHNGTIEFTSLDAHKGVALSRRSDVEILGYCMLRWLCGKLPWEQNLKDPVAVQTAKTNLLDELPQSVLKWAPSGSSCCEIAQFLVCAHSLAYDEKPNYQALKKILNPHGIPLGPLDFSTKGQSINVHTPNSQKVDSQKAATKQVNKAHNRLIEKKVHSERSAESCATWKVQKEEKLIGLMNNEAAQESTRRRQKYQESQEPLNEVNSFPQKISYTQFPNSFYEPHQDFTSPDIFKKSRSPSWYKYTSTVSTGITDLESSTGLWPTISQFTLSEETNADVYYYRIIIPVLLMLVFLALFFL
Tyrosine-protein kinase Srms (Homo sapiens), sequence (Q9H3Y6 whole entry, the tested form may be a part): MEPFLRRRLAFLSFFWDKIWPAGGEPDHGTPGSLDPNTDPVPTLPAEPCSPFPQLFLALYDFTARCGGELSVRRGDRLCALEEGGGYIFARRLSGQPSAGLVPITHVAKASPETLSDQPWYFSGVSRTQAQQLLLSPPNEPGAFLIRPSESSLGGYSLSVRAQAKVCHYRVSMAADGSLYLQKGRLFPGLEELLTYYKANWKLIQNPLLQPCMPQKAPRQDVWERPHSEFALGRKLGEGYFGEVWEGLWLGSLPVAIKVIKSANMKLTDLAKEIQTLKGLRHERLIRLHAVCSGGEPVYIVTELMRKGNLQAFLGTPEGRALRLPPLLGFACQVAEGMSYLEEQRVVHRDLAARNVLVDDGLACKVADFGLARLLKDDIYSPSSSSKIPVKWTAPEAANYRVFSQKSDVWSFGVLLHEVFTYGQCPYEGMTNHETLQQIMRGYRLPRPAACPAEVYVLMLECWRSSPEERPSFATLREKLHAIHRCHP
Wee1-like protein kinase (Homo sapiens), sequence (P30291 whole entry, looked up, the tested form may be a part): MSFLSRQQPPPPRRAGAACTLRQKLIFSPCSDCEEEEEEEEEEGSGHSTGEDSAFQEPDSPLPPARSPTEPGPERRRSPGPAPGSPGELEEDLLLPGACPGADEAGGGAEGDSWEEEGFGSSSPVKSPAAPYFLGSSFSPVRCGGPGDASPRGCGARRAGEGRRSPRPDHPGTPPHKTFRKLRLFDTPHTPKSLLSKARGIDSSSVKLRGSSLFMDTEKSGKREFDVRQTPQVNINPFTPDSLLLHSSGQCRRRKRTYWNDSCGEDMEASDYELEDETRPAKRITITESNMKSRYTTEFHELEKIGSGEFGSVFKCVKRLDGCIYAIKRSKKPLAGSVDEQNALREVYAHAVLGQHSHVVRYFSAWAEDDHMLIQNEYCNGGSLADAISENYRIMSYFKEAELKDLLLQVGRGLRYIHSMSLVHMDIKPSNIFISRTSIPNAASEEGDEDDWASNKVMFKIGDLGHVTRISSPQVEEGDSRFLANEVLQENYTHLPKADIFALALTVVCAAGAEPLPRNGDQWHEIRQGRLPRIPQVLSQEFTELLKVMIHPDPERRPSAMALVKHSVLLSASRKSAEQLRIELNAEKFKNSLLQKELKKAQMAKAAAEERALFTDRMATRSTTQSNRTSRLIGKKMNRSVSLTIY
Proto-oncogene tyrosine-protein kinase Src (Homo sapiens), sequence (P12931 2-536 limits assumed): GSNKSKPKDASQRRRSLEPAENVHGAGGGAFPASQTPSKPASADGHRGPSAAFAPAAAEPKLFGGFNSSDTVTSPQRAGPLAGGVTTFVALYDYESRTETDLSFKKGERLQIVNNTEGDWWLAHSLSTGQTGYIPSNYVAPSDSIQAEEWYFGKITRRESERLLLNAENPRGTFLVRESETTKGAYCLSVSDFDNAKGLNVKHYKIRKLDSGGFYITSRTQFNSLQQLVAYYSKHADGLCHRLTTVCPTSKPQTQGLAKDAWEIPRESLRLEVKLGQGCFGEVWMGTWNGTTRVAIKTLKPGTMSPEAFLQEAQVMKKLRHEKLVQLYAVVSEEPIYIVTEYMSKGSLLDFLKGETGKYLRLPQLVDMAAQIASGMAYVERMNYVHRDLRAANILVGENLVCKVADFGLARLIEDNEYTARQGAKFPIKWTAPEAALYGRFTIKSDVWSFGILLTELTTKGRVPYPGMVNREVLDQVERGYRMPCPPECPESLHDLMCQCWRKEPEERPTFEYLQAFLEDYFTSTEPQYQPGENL
Serine/threonine-protein kinase SIK1 (Homo sapiens), sequence (P57059 whole entry, the tested form may be a part): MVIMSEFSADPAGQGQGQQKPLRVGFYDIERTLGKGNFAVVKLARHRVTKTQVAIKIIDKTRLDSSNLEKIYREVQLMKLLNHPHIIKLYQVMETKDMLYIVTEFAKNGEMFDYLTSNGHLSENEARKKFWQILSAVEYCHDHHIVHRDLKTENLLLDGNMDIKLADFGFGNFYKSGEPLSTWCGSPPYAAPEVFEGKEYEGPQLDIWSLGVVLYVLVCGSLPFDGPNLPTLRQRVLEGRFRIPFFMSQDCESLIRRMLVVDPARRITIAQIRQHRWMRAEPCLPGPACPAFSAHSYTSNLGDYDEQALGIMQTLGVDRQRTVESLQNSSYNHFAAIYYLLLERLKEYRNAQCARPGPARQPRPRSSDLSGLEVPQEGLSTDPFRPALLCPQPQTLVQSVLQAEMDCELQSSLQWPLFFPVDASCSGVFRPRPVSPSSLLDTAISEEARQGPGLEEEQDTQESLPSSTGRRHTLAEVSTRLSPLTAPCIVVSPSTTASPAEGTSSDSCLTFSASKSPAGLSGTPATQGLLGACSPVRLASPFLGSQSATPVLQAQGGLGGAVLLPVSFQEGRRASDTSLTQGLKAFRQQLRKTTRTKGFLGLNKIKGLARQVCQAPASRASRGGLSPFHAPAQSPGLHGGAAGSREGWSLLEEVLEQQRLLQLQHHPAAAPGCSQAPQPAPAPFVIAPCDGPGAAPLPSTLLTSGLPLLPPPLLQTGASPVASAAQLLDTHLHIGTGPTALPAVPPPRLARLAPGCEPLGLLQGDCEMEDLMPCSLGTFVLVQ
Testis-specific serine/threonine-protein kinase 1 (Homo sapiens), sequence (Q9BXA7 whole entry, the tested form may be a part): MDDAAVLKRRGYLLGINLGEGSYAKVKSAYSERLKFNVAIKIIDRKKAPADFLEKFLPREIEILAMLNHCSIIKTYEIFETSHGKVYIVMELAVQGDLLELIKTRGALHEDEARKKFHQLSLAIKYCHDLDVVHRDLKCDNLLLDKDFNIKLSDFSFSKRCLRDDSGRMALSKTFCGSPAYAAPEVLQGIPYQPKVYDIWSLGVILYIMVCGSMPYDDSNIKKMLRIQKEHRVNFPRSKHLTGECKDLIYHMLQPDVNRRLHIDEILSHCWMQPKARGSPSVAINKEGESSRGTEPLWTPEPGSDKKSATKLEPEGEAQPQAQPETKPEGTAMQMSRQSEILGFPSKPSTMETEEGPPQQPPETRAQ

Regarding `COc1cc(N2CCC(N3CCN(C)CC3)CC2)ccc1Nc1ncc2c(n1)N(C)c1ccccc1C(=O)N2C`, the inhibition in test [1] is 77%; in test [2] it was 47%; in [3], 100%; in test [4], 77%; in [5], 100%; in test [6], 72%. Besides, the inhibition in [7] was 10%; in test [8], 100%; in test [9], 24%; in [10] it was 100%; in [11], 99%; in test [12] it was 69%. Also, the inhibition in test [13] came out at 100%; in test [14] it was 100%; in test [15], 100%; in test [16], 60%; in test [17], 28%; in test [18], 91%. Further, the inhibition in [19] amounted to 52%; in test [20] it was 99%; in [21], 100%; in test [22], 100%. For the same molecule, the residual activity came to 81% in test [23] and 100% in [24].
In the case of `COc1cc(C(=O)N2CCC(N3CCN(C)CC3)CC2)ccc1Nc1ncc2c(n1)N(C1CCCC1)c1ccccc1C(=O)N2C`, the inhibition in test [2], in test [4], in test [8], in [9], in test [14] and in test [15] was 100% throughout. Further, the inhibition in test [19] and in test [20] was 100% throughout.
Take `CCOc1cc(C(=O)N2CCC(N3CCN(C)CC3)CC2)ccc1Nc1ncc2c(n1)N(C1CCCC1)c1ccccc1C(=O)N2C`: the inhibition in [1], in [3], in test [5], in test [6], in test [7] and in test [10] was 100% in each case. The inhibition in [11] stood at 100%; in test [12], 100%; in test [13] it was 100%; in test [16], 100%; in test [17], 49%; in test [18], 100%. Also, the inhibition in test [21] and in test [22] was 100% throughout. For the same molecule, the residual activity in test [23] and in test [24] was 100% each time.

Broadly, the inhibition is the change of the read-out against control, counted positive when it falls. Read a low inhibition as a weak effect.
